According to patent publication US20070154445A1, “Compositions, methods and kits for preventing the decomposition of urine” (priority 2006, published 2007):
Read-outs that look alike come from different tables or passages of the source.

[1] = 4 grams in total added to 600 milliliters of urine
[2] = 5 grams in total added to 600 milliliters of urine

Description: Accordingly, various compositions were tested to determine their effect on the pH when added to 600 milliliters of urine.

| Resulting pH [1] | Resulting pH [2] | Compound |
| --- | --- | --- |
| 3.4 | 3.3 | O=C(O)C(O)C(O)C(=O)O (centres unmarked) [Pure tartaric acid in granular form, tartaric acid] |
| – | 4.2 | O=C(O)CCC(=O)O [Pure succinic acid in granular form, succinic acid] |
| 3.8 | 3.7 | O=C(O)CC(O)(CC(=O)O)C(=O)O [Pure citric acid in granular form, citric acid] |
